# Measured values: patent publication US20110053947A1, “Arylchalcogenoarylalkyl-substituted imidazolidine-2,4-diones, process for preparation thereof, medicaments comprising these compounds and use thereof” (SANOFI-AVENTIS, priority 2008, published 2011)
# Where a name gives a salt, the structure may show the parent alone.
# Target: T1, cannabinoid 1 receptor (hCB1R) (Homo sapiens, UniProt P21554)
# T1 construct: expressed in transfected cells; host or cells: HEK293
# Assay: In vitro functional assay with recombinant cells (FLIPR), CB1
# Type: cell-based
# Details: recombinant HEK293 cells expressing CB1 and G-protein; intracellular Ca2+ change after reference agonist, 20 min preincubation; read-out: hCB1R: FLIPR; IC50
# Protocol: In vitro functional assays with recombinant cells:
# Function-testing assays were performed by means of the FLIPR technique (“Fluorometric Imaging Plate Reader”, Molecular Devices Corp.).
# To this end, ligand-induced changes in the intracellular concentration of Ca^2+ in recombinant HEK293 cells, which expressed both a cannabinoid receptor (CB1 or CB2) and G-protein Galphal6, were determined. For the studies, cells were sown into 96-well microtiter plates (60 000 cells/well) and left to grow overnight. The medium was removed and the cells were incubated in buffer which contained the fluorescent dye Fluo-4. After this loading with dye, the cells were washed, test substance was added dissolved in buffer, the mixture was incubated for 20 minutes, a known cannabinoid receptor agonist as a reference agonist was added in buffer and, finally, the changes in the intracellular Ca^2+ concentration were measured in the FLIPR unit.
# Results were presented as the percentage change relative to the control (0%: analogous experiment without test substance and without reference agonist, i.e. only with buffer; 100%: analogous experiment without test substance, but with reference agonist in excess), and used to calculate dose/action curves, and IC50 values were determined.
# The values of the functional assay compared to the cannabinoid 1 receptor including illustrative selectivities compared to the cannabinoid 2 receptor can be taken from table 1 which follows.
# T1 sequence (P21554 whole entry): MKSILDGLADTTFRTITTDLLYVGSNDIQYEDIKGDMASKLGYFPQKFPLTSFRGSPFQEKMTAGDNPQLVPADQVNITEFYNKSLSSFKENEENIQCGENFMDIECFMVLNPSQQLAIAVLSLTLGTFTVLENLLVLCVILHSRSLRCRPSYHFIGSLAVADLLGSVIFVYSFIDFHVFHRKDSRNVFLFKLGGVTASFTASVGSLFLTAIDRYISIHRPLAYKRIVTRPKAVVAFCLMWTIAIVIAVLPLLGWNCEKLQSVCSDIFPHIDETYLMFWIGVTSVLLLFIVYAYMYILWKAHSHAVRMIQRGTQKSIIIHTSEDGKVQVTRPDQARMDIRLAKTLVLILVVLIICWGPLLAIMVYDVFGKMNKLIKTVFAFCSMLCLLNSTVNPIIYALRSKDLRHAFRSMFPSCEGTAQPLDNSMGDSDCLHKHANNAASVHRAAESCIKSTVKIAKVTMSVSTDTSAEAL
row,SMILES,IC50 [nM]
1,"CC1(C)C(=O)N(c2ccc(C#N)c(C(F)(F)F)c2)C(=O)N1Cc1ccccc1NC(=O)Nc1ccc(C(N)=O)cc1 [Example 16, 4-(3-{2-[3-(4-Cyano-3-trifluoromethylphenyl)-5,5-dimethyl-2,4-dioxoimidazolidin-1-ylmethyl]phenyl}ureido)benzamide]",12
2,"COC(=O)c1ccc(NC(=O)Nc2cc(F)ccc2CN2C(=O)N(c3ccc(C#N)c(C(F)(F)F)c3)C(=O)C2(C)C)cc1 [Example 17, Methyl 4-(3-{2-[3-(4-cyano-3-trifluoromethylphenyl)-5,5-dimethyl-2,4-dioxoimidazolidin-1-ylmethyl]-5-fluorophenyl}ureido)benzoate]",10
3,"CC1(C)C(=O)N(c2ccc(C#N)c(C(F)(F)F)c2)C(=O)N1Cc1ccc(F)cc1NC(=O)Nc1ccc(S(C)(=O)=O)cc1 [Example 19, 1-{2-[3-(4-Cyano-3-trifluoromethylphenyl)-5,5-dimethyl-2,4-dioxoimidazolidin-1-ylmethyl]-5-fluorophenyl}-3-(4-methane-sulfonylphenyl)urea]",9
4,"CC1(C)C(=O)N(c2ccc(C#N)c(C(F)(F)F)c2)C(=O)N1Cc1ccc(F)cc1NC(=O)Nc1ccc(Cl)nc1 [Example 20, 1-(6-chloropyridin-3-yl)-3-{2-[3-(4-cyano-3-trifluoromethylphenyl)-5,5-dimethyl-2,4-dioxoimidazolidin-1-ylmethyl]-5-fluorophenyl}urea]",16
5,"CC1(C)C(=O)N(c2ccc(C#N)c(C(F)(F)F)c2)C(=O)N1Cc1ccc(F)cc1NC(=O)Nc1ccc(S(N)(=O)=O)cc1 [Example 22, 4-(3-{2-[3-(4-Cyano-3-trifluoromethylphenyl)-5,5-dimethyl-2,4-dioxoimidazolidin-1-ylmethyl]-5-fluorophenyl}ureido)benzenesulfonamide]",9
6,"CC1(C)C(=O)N(c2ccc(F)c(C(F)(F)F)c2)C(=O)N1Cc1ccc(F)cc1NC(=O)Nc1ccc(S(=O)(=O)O)cc1 [Example 25, 4-(3-{5-fluoro-2-[3-(4-fluoro-3-trifluoromethylphenyl)-5,5-dimethyl-2,4-dioxoimidazolidin-1-ylmethyl]phenyl}ureido)benzenesulfonic acid]",58
7,"CC1(C)C(=O)N(c2ccc(F)c(C(F)(F)F)c2)C(=O)N1Cc1ccc(F)cc1NC(=O)Nc1ccc(S(=O)(=O)O)cc1 [Example 26, Sodium salt of 4-(3-{5-fluoro-2-[3-(4-fluoro-3-trifluoromethylphenyl)-5,5-dimethyl-2,4-dioxoimidazolidin-1-ylmethyl]phenyl}ureido)benzenesulfonic acid]",66
8,"CC1(C)C(=O)N(c2ccc(F)c(C(F)(F)F)c2)C(=O)N1Cc1ccc(F)cc1NC(=O)Nc1ccc(S(C)(=O)=O)cc1 [Example 27, 1-{5-Fluoro-2-[3-(4-fluoro-3-trifluoromethylphenyl)-5,5-dimethyl-2,4-dioxoimidazolidin-1-ylmethyl]phenyl}-3-(4-methanesulfonylphenyl)urea]",13
9,"CC1(C)C(=O)N(c2ccc(C#N)c(C3CC3)c2)C(=O)N1Cc1ccc(F)cc1NC(=O)Nc1ccc(S(N)(=O)=O)cc1 [Example 28, 4-(3-{2-[3-(4-Cyano-3-cyclopropylphenyl)-5,5-dimethyl-2,4-dioxoimidazolidin-1-ylmethyl]-5-fluorophenyl}ureido)benzenesulfonamide]",9
10,"CC1(C)C(=O)N(c2ccc(C#N)c(C3CC3)c2)C(=O)N1Cc1ccc(F)cc1NC(=O)Nc1ccc(S(=O)(=O)O)cc1 [Example 29, 4-(3-{2-[3-(4-cyano-3-cyclopropylphenyl)-5,5-dimethyl-2,4-dioxo-imidazolidin-1-ylmethyl]-5-fluorophenyl}ureido)benzenesulfonic acid]",69
11,"CC1(C)C(=O)N(c2ccc(C#N)c(C3CC3)c2)C(=O)N1Cc1ccc(F)cc1NC(=O)Nc1ccc(S(C)(=O)=O)cc1 [Example 30, 1-{2-[3-(4-Cyano-3-cyclopropylphenyl)-5,5-dimethyl-2,4-dioxoimidazolidin-1-ylmethyl]-5-fluorophenyl}-3-(4-methanesulfonylphenyl)urea]",11
12,"CSc1ccc(NC(=O)Nc2cc(F)ccc2CN2C(=O)N(c3ccc(C#N)c(C4CC4)c3)C(=O)C2(C)C)cc1 [Example 30.1, 1-{2-[3-(4-cyano-3-cyclopropylphenyl)-5,5-dimethyl-2,4-dioxoimidazolidin-1-ylmethyl]-5-fluorophenyl}-3-(4-methylsulfanylphenyl)urea]",12
13,"CC1(C)C(=O)N(c2ccc(F)c(C(F)(F)F)c2)C(=O)N1Cc1ccc(F)cc1NC(=O)Nc1ccc(NS(C)(=O)=O)cc1 [Example 31, N-[4-(3-{5-Fluoro-2-[3-(4-fluoro-3-trifluoromethylphenyl)-5,5-dimethyl-2,4-dioxoimidazolidin-1-ylmethyl]phenyl}ureido)phenyl]methanesulfonamide]",32
14,"CC1(C)C(=O)N(c2ccc(C#N)c(C(F)(F)F)c2)C(=O)N1Cc1ccc(F)cc1NC(=O)Nc1ccc(O)cc1 [Example 41, 1-{2-[3-(4-Cyano-3-trifluoromethylphenyl)-5,5-dimethyl-2,4-dioxo-imidazolidin-1-ylmethyl]-5-fluorophenyl}-3-(4-hydroxyphenyl)urea]",4
15,"CC1(C)C(=O)N(c2ccc(C#N)c(C3CC3)c2)C(=O)N1Cc1ccc(F)cc1NC(=O)Nc1ccc(S(=O)(=O)CC(=O)O)cc1 [Example 47, [4-(3-{2-[3-(4-Cyano-3-cyclopropylphenyl)-5,5-dimethyl-2,4-dioxoimidazolidin-1-ylmethyl]-5-fluorophenyl}ureido)benzenesulfonyl]acetic acid]",25
16,"CC1(C)C(=O)N(c2ccc(C#N)c(C(F)(F)F)c2)C(=O)N1Cc1ccc(F)cc1NC(=O)Nc1ccc(SCC(=O)O)cc1 [Example 50, [4-(3-{2-[3-(4-Cyano-3-trifluoromethylphenyl)-5,5-dimethyl-2,4-dioxoimidazolidin-1-ylmethyl]-5-fluorophenyl}ureido)phenylsulfanyl]acetic acid]",13
17,"CC1(C)C(=O)N(c2ccc(F)c(C(F)(F)F)c2)C(=O)N1Cc1ccc(F)cc1NC(=O)Nc1ccc(C(=O)O)cc1 [Example 60, 4-(3-{5-fluoro-2-[3-(4-fluoro-3-trifluoromethylphenyl)-5,5-dimethyl-2,4-dioxoimidazolidin-1-ylmethyl]phenyl}-ureido)benzoic acid]",53
18,"CC1(C)C(=O)N(c2ccc(F)c(C(F)(F)F)c2)C(=O)N1Cc1ccc(F)cc1NC(=O)Nc1ccc(C(=O)NS(C)(=O)=O)cc1 [Example 61, N-[4-(3-{5-Fluoro-2-[3-(4-fluoro-3-trifluoromethylphenyl)-5,5-dimethyl-2,4-dioxoimidazolidin-1-ylmethyl]phenyl}ureido)benzoyl]methanesulfonamide]",16
19,"CC1(C)C(=O)N(c2ccc(F)c(C(F)(F)F)c2)C(=O)N1Cc1ccc(F)cc1NC(=O)Nc1ccc(C(=O)NS(=O)(=O)C(F)(F)F)cc1 [Example 62, C,C,C-trifluoro-N-[4-(3-{5-fluoro-2-[3-(4-fluoro-3-trifluoromethylphenyl)-5,5-dimethyl-2,4-dioxoimidazolidin-1-ylmethyl]phenyl}ureido)benzoyl]methanesulfonamide]",46
20,"CC1(C)C(=O)N(c2ccc(F)c(C(F)(F)F)c2)C(=O)N1Cc1ccc(F)cc1NC(=O)Nc1ccc(C(=O)NS(=O)(=O)Cc2ccccc2)cc1 [Example 64, N-[4-(3-{5-fluoro-2-[3-(4-fluoro-3-trifluoromethylphenyl)-5,5-dimethyl-2,4-dioxoimidazolidin-1-ylmethyl]phenyl}ureido)benzoyl]-C-phenylmethanesulfonamide]",39
21,"CC1(C)C(=O)N(c2ccc(F)c(C(F)(F)F)c2)C(=O)N1Cc1ccc(F)cc1NC(=O)Nc1ccc(C(=O)NS(=O)(=O)C2CC2)cc1 [Example 65, N-[4-(3-{5-fluoro-2-[3-(4-fluoro-3-trifluoromethylphenyl)-5,5-dimethyl-2,4-dioxoimidazolidin-1-ylmethyl]phenyl}ureido)benzoyl]cyclopropanesulfonamide]",42
22,"CC1(C)C(=O)N(c2ccc(C#N)c(C3CC3)c2)C(=O)N1Cc1cc(C(F)(F)F)ccc1NC(=O)Nc1ccc(S(C)(=O)=O)cc1 [Example 66, 1-{2-[3-(4-Cyano-3-cyclopropylphenyl)-5,5-dimethyl-2,4-dioxoimidazolidin-1-ylmethyl]-4-trifluoromethylphenyl}-3-(4-methanesulfonylphenyl)urea]",10
23,"CC1(C)C(=O)N(c2ccc(C#N)c(C3CC3)c2)C(=O)N1Cc1cc(Cl)ccc1NC(=O)Nc1ccc(S(C)(=O)=O)cc1 [Example 67, 1-{4-chloro-2-[3-(4-cyano-3-cyclopropylphenyl)-5,5-dimethyl-2,4-dioxoimidazolidin-1-ylmethyl]phenyl}-3-(4-methanesulfonylphenyl)urea]",6
24,"COc1cc(CN2C(=O)N(c3ccc(F)c(C(F)(F)F)c3)C(=O)C2(C)C)c(NC(=O)Nc2ccc(S(N)(=O)=O)cc2)cc1OC [Example 68, 4-(3-{2-[3-(4-fluoro-3-trifluoromethylphenyl)-5,5-dimethyl-2,4-dioxoimidazolidin-1-ylmethyl]-4,5-dimethoxyphenyl}ureido)benzenesulfonamide]",39
